# Assay results reported in the supplement of paper PMC11208160.
# Experiment: recombinant UMI read abundance after kanamycin selection (control-corrected) (log10(CPM+1)); higher = more efficient recombination; extreme values may be limits of the assay; sequences stand for … in AGTGCAGAGAAAATCGGCCAGTTTTCTCTGCCTGCAGTCCGCATGCCGTGGGACCCCTTGGGTTCTAACCTGTTGCCTAGATTTATGCAGCGGACTGCCTTTCTCCCAAAGTGATAAACCGG…AGGTTGGTTTCACT; site = the 11-nt donor
# How it was run: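 Under IPTG (0.07 mM) plus kanamycin, or without selection, Escherichia coli carrying a UMI-tagged donor and donor-binding-loop pair library and a target plasmid for the IS621 bridge recombinase were plated in two replicates. Recombinant UMIs were PCR-amplified across the donor–target junction and sequenced. Counts were converted to CPM, averaged over replicates, scaled by control-derived factors and reported as log10(CPM+1).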
# 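Also: IS621 bridge recombinase in Escherichia coli cells against a fixed T5 target plasmid.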
row,Sequence,recombinant UMI read abundance (log10)
1,AGTTAGACATGGACCGGTTTTCCCGGTAATCCGTATTTGCA (site AGGAAGACTTG),1.51
2,AGTTAGACATGGACCGGTTTTCCCGGTAATCCGTATTTGCA (site AGTTAGACTTG),1.93
3,AGTTCAGCATGGACCGGTTTTCCCGGTAATCCGTATTTGGC (site AGTTCAGCTGC),0.972
4,AGTTCCACATGGACCGGTTTTCCCGGTAATCCGTATTTGGC (site AGTTCCACTGC),1.42
5,AGTTCCACATGGACCGGTTTTCCCGGTAATCCGTATTTGTA (site AGTTCCACTTA),0.751
6,AGTTGGTCATGGACCGGTTTTCCCGGTAATCCGTATTTGAA (site AGTTGGTCTTT),0.435
7,AGTTTCGCATGGACCGGTTTTCCCGGTAATCCGTATTTGGT (site AGTTTCGCTAC),0.564
8,ATAAGGCCATGGACCGGTTTTCCCGGTAATCCGTATTTGAT (site ATAAGGCCTAT),0.221
9,ATAAGGCCATGGACCGGTTTTCCCGGTAATCCGTATTTGAT (site ATAAGGCCTCT),0.00711
10,ATAAGGCCATGGACCGGTTTTCCCGGTAATCCGTATTTGAT (site ATAAGGCCTGT),0
11,ATAAGGCCATGGACCGGTTTTCCCGGTAATCCGTATTTGAT (site ATAAGGCCTTT),0.0201
12,ATAATGCCATGGACCGGTTTTCCCGGTAATCCGTATTTGAC (site ATAAAGCCTGT),0.589
13,ATAATGCCATGGACCGGTTTTCCCGGTAATCCGTATTTGAC (site ATAACGCCTGT),0.155
14,ATAATGCCATGGACCGGTTTTCCCGGTAATCCGTATTTGAC (site ATAAGGCCTGT),0
15,ATAATGCCATGGACCGGTTTTCCCGGTAATCCGTATTTGAC (site ATAATGCCTGT),2.03
16,ATACCCACATGGACCGGTTTTCCCGGTAATCCGTATTTGAC (site ATACCCACTGT),2.65
17,ATACGCACATGGACCGGTTTTCCCGGTAATCCGTATTTGAA (site ATACGCACTTT),1.55
18,ATACGCACATGGACCGGTTTTCCCGGTAATCCGTATTTGTT (site ATACGCACTAA),1.29
19,ATACTATCATGGACCGGTTTTCCCGGTAATCCGTATTTGAC (site ATACTATCTGT),3.39
20,ATACTATCATGGACCGGTTTTCCCGGTAATCCGTATTTGAC (site CTAGTATCTGT),0
21,ATAGGCCCATGGACCGGTTTTCCCGGTAATCCGTATTTGAA (site ATAGGCCCTTT),0.215
22,ATAGGGCCATGGACCGGTTTTCCCGGTAATCCGTATTTGAC (site ATAAGGCCTGT),1.44
23,ATAGGGCCATGGACCGGTTTTCCCGGTAATCCGTATTTGAC (site ATACGGCCTGT),0
24,ATAGGGCCATGGACCGGTTTTCCCGGTAATCCGTATTTGAC (site ATAGGGCCTGT),0
25,ATAGGGCCATGGACCGGTTTTCCCGGTAATCCGTATTTGAC (site ATATGGCCTGT),0

row,Sequence,recombinant UMI read abundance (log10)
1,ATAGGTCCATGGACCGGTTTTCCCGGTAATCCGTATTTGTT (site ATAGGTCCTAA),0.95
2,ATAGGTGCATGGACCGGTTTTCCCGGTAATCCGTATTTGTC (site ATAGGTGCTGA),2.7
3,ATAGTTCCATGGACCGGTTTTCCCGGTAATCCGTATTTGGA (site ATAGTTCCTTC),0.223
4,ATATATACATGGACCGGTTTTCCCGGTAATCCGTATTTGAC (site ATATATACTGT),2.65
5,ATATATACATGGACCGGTTTTCCCGGTAATCCGTATTTGAC (site ATCTATACTGT),0.727
6,ATATATACATGGACCGGTTTTCCCGGTAATCCGTATTTGAC (site ATGTATACTGT),1.62
7,ATATATACATGGACCGGTTTTCCCGGTAATCCGTATTTGAC (site ATTTATACTGT),0.227
8,ATATCAACATGGACCGGTTTTCCCGGTAATCCGTATTTGTA (site ATATCAACTTA),1.61
9,ATATGAACATGGACCGGTTTTCCCGGTAATCCGTATTTGAC (site ATATGAACTGT),2.9
10,ATATTTGCATGGACCGGTTTTCCCGGTAATCCGTATTTGAC (site ATATTTGCTGT),2.1
11,ATCACACCATGGACCGGTTTTCCCGGTAATCCGTATTTGTC (site ATCACACCTGA),0
12,ATCACAGCATGGACCGGTTTTCCCGGTAATCCGTATTTGGG (site ATCACAGCTCC),0.00407
13,ATCACCTCATGGACCGGTTTTCCCGGTAATCCGTATTTGCT (site ATCACCTCTAG),2.75
14,ATCCAAACATGGACCGGTTTTCCCGGTAATCCGTATTTGAG (site ATCCAAACTCT),1.6
15,ATCCAAACATGGACCGGTTTTCCCGGTAATCCGTATTTGAG (site ATCCAACCTCT),0.01
16,ATCCAAACATGGACCGGTTTTCCCGGTAATCCGTATTTGAG (site ATCCAAGCTCT),0.432
17,ATCCAAACATGGACCGGTTTTCCCGGTAATCCGTATTTGAG (site ATCCAATCTCT),0.352
18,ATCCAACCATGGACCGGTTTTCCCGGTAATCCGTATTTGAG (site ATCCAAACTCT),0.0118
19,ATCCAACCATGGACCGGTTTTCCCGGTAATCCGTATTTGAG (site ATCCAACCTCT),0
20,ATCCAACCATGGACCGGTTTTCCCGGTAATCCGTATTTGAG (site ATCCAAGCTCT),0.133
21,ATCCAACCATGGACCGGTTTTCCCGGTAATCCGTATTTGAG (site ATCCAATCTCT),0.257
22,ATCCAGGCATGGACCGGTTTTCCCGGTAATCCGTATTTGTG (site ATCCAGGCTCA),0.328
23,ATCCCGGCATGGACCGGTTTTCCCGGTAATCCGTATTTGGG (site ATCCCGGCTCC),0.00576
24,ATCCCTACATGGACCGGTTTTCCCGGTAATCCGTATTTGCA (site ATCCCTACTTG),1.81
25,ATCCCTGCATGGACCGGTTTTCCCGGTAATCCGTATTTGTG (site ATCCCTGCTCA),0.13

row,Sequence,recombinant UMI read abundance (log10)
1,ATCCCTTCATGGACCGGTTTTCCCGGTAATCCGTATTTGTG (site ATCCCTTCTCA),0.0697
2,ATCCGTCCATGGACCGGTTTTCCCGGTAATCCGTATTTGAC (site ATCCGTCCTGT),0.00623
3,ATCCGTCCATGGACCGGTTTTCCCGGTAATCCGTATTTGAT (site AACCGTCCTAT),0.00762
4,ATCCGTCCATGGACCGGTTTTCCCGGTAATCCGTATTTGAT (site ACCCGTCCTAT),0.0678
5,ATCCGTCCATGGACCGGTTTTCCCGGTAATCCGTATTTGAT (site AGCCGTCCTAT),0.00385
6,ATCCGTCCATGGACCGGTTTTCCCGGTAATCCGTATTTGAT (site ATCCGTCCTAT),0.0236
7,ATCCTGACATGGACCGGTTTTCCCGGTAATCCGTATTTGAA (site ATCCTGACTTT),0.419
8,ATCCTGGCATGGACCGGTTTTCCCGGTAATCCGTATTTGAA (site ATCCTGGCTTT),1.24
9,ATCGAAGCATGGACCGGTTTTCCCGGTAATCCGTATTTGAG (site ATCAAAGCTCT),2.12
10,ATCGAAGCATGGACCGGTTTTCCCGGTAATCCGTATTTGAG (site ATCCAAGCTCT),0.355
11,ATCGAAGCATGGACCGGTTTTCCCGGTAATCCGTATTTGAG (site ATCGAAGCTCT),2.1
12,ATCGAAGCATGGACCGGTTTTCCCGGTAATCCGTATTTGAG (site ATCTAAGCTCT),0.58
13,ATCGACTCATGGACCGGTTTTCCCGGTAATCCGTATTTGAG (site ATCGACTCTCT),1.67
14,ATCGAGTCATGGACCGGTTTTCCCGGTAATCCGTATTTGTA (site ATCGAGTCTTA),3.05
15,ATCGATTCATGGACCGGTTTTCCCGGTAATCCGTATTTGAG (site ATCGATTCTCT),2.41
16,ATCGGGACATGGACCGGTTTTCCCGGTAATCCGTATTTGTG (site ATCGGGACTCA),0.972
17,ATCTAAGCATGGACCGGTTTTCCCGGTAATCCGTATTTGAG (site ATCAAAGCTCT),0.792
18,ATCTAAGCATGGACCGGTTTTCCCGGTAATCCGTATTTGAG (site ATCCAAGCTCT),1.93
19,ATCTAAGCATGGACCGGTTTTCCCGGTAATCCGTATTTGAG (site ATCGAAGCTCT),0.367
20,ATCTAAGCATGGACCGGTTTTCCCGGTAATCCGTATTTGAG (site ATCTAAGCTCT),2.16
21,ATCTATACATGGACCGGTTTTCCCGGTAATCCGTATTTGCC (site ATCTATACTGA),1.23
22,ATCTATACATGGACCGGTTTTCCCGGTAATCCGTATTTGCC (site ATCTATACTGC),0
23,ATCTATACATGGACCGGTTTTCCCGGTAATCCGTATTTGCC (site ATCTATACTGG),2.12
24,ATCTATACATGGACCGGTTTTCCCGGTAATCCGTATTTGCC (site ATCTATACTGT),0.46
25,ATCTATACATGGACCGGTTTTCCCGGTAATCCGTATTTGTC (site ATCTATACTGA),2.8
